In patent publication US4393228A, “Epoxysuccinic acid derivatives” (Taisho Pharmaceutical Co., Ltd., priority 1977, dated 1983):
Where a name gives a salt, the structure may show the parent alone.

Target: T1, papain (Carica papaya, UniProt P00784)
T1 construct: purchased Sigma Chem. Co
T1 sequence (P00784 134-345): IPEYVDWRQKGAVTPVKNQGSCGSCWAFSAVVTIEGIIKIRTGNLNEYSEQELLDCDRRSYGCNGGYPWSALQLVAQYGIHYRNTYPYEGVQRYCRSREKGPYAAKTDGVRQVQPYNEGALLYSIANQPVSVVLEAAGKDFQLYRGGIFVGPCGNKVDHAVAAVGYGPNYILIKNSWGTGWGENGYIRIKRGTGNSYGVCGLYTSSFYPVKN
Assay: Papain inhibitory activity (milk casein digestion)
Format: biochemical
Settings: papain 80 μg/ml 0.5 ml, cysteine, pH 6.8, 1% milk casein, 40° C., 10 minutes
Outline: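 Papain (80 μg/ml stock) preincubated 15 min at 40 °C with inhibitor, cysteine/EDTA activator and phosphate buffer pH 6.8. Then 1% milk casein digested 10 min at 40 °C, stopped with trichloroacetic acid and filtered; filtrate absorbance at 280 nm gives percent inhibition versus no-inhibitor control.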

Structure (SMILES) | ID50 (amount of inhibitor for 50% inhibition)
COC(=O)[C@H](CCSC)NC(=O)C1OC1C(=O)OCc1ccc2c(c1)OCO2 (stereo partly drawn) [EP-149, N-(3-piperonyloxycarbonyloxirane-2-carbonyl)-L-methionene methyl ester] | 0.70 γ
CCOC(=O)C1OC1C(=O)N[C@@H](Cc1ccccc1)C(=O)OCC (stereo partly drawn) [EP-150, N-(3-ethoxycarbonyloxirane-2-carbonyl)-L-phenylalanine ethyl ester] | 3.10 γ
CCOC(=O)C1OC1C(=O)N[C@@H](Cc1c[nH]c2ccccc12)C(=O)OCC (stereo partly drawn) [EP-151, N-(3-ethoxycarbonyloxirane-2-carbonyl)-L-tryptophan ethyl ester] | 7.20 γ
CCOC(=O)C1OC1C(=O)N1CCC[C@H]1C(=O)OCc1ccccc1 (stereo partly drawn) [EP-152, N-(3-ethoxycarbonyloxirane-2-carbonyl)-L-proline benzyl ester] | 48.20 γ
CCOC(=O)C1OC1C(=O)N[C@@H](CCSC)C(=O)OC (stereo partly drawn) [EP-155, N-(3-ethoxycarbonyloxirane-2-carbonyl)-L-methionine methyl ester] | 9.20 γ
CCOC(=O)C1OC1C(=O)N[C@@H](CCC(=O)OCc1ccccc1)C(=O)OCc1ccccc1 (stereo partly drawn) [EP-156, N-(3-ethoxycarbonyloxirane-2-carbonyl)-L-glutamic acid dibenzyl ester] | 13.80 γ
CCOC(=O)C1OC1C(=O)N[C@H](C(=O)OCc1ccccc1)C(C)C (stereo partly drawn) [EP-158, N-(3-ethoxycarbonyloxirane-2-carbonyl)-L-valine benzyl ester] | 3.47 γ
CCOC(=O)[C@H](Cc1ccccc1)NC(=O)C1OC1C(=O)OCc1ccccc1 (stereo partly drawn) [EP-159, N-(3-benzyloxycarbonyloxirane-2-carbonyl)-L-phenylalanine ethyl ester] | 0.27 γ
CCOC(=O)[C@H](Cc1ccccc1)NC(=O)C1OC1C(=O)OCc1ccccc1Cl (stereo partly drawn) [EP-160, N-(3-o-chlorobenzyloxycarbonyloxirane-2-carbonyl)-L-phenylalanine ethyl ester] | 0.30 γ
CC(C)[C@H](NC(=O)C1OC1C(=O)OCc1ccc(Br)cc1)C(=O)OCc1ccccc1 (stereo partly drawn) [EP-162, N-(3-p-bromobenzyloxycarbonyloxirane-2-carbonyl)-L-valine benzyl ester] | 0.80 γ
CCOC(=O)C1OC1C(=O)N[C@@H](CCCCNC(=O)OCc1ccccc1)C(=O)OCc1ccccc1 (stereo partly drawn) [EP-163, N^α -(3-ethoxycarbonyloxirane-2-carbonyl)-N^ε -carbobenzoxy-L-lysine benzyl ester] | 29.07 γ
C=CCOC(=O)C1OC1C(=O)N[C@@H](CCCCNC(=O)OCc1ccccc1)C(=O)OCc1ccccc1 (stereo partly drawn) [EP-164, N^α -(3-allyloxycarbonyloxirane-2-carbonyl)-N^ε -carbobenzoxy-L-lysine benzyl ester] | 20.49 γ
C#CCOC(=O)C1OC1C(=O)N[C@@H](CCCCNC(=O)OCc1ccccc1)C(=O)OCc1ccccc1 (stereo partly drawn) [EP-165, N^α -(3-propargyloxycarbonyloxirane-2-carbonyl)-N^ε -carbobenzoxy-L-lysine benzyl ester] | 22.50 γ
CCOC(=O)[C@H](CC(C)C)NC(=O)C1OC1C(=O)OC (stereo partly drawn) [EP-166, N-(3-methoxycarbonyloxirane-2-carbonyl)-L-leucine ethyl ester] | 0.67 γ
CCOC(=O)C1OC1C(=O)N[C@@H](CC(C)C)C(N)=O (stereo partly drawn) [EP-167, N-(3-ethoxycarbonyloxirane-2-carbonyl)-L-leucine amide] | 0.50 γ
CCOC(=O)C1OC1C(=O)N[C@@H](CCC(N)=O)C(=O)OCc1ccccc1 (stereo partly drawn) [EP-168, N-(3-ethoxycarbonyloxirane-2-carbonyl)-L-glutamine benzyl ester] | 12.50 γ
CCOC(=O)C1OC1C(=O)N[C@@H](CCCCNC(=O)OCc1ccc(OC)cc1)C(=O)OCc1ccccc1 (stereo partly drawn) [EP-169, N^α -(3-ethoxycarbonyloxirane-2-carbonyl)-N^ε -p-methoxybenzyloxycarbonyl-L-lysine benzyl ester] | 26.50 γ
CCOC(=O)C1OC1C(=O)N[C@@H](CCCCNC(=O)OC(C)(C)C)C(=O)OCc1ccccc1 (stereo partly drawn) [EP-170, N^α -(3-ethoxycarbonyloxirane-2-carbonyl)-N^ε -t-butyloxycarbonyl-L-lysine benzyl ester] | 27.50 γ
O=CNCCCC[C@H](NC(=O)C1OC1C(=O)OCc1ccccc1)C(=O)OCc1ccccc1 (some centres unmarked) [EP-171] | 5.80 γ

Structure (SMILES) | ID50 (amount of inhibitor for 50% inhibition)
CCOC(=O)C1OC1C(=O)N[C@@H](CCCNC(C)=O)C(=O)OCc1ccccc1 (stereo partly drawn) [EP-172, N^α -(3-ethoxycarbonyloxirane-2-carbonyl)-N^δ -acetyl-L-ornithine benzyl ester] | 6.20 γ
CCOC(=O)C1OC1C(=O)N[C@@H](CCCNC(=O)c1ccccc1)C(=O)OCc1ccccc1 (stereo partly drawn) [EP-173, N^α -(3-ethoxycarbonyloxirane-2-carbonyl)-N^δ -benzoyl-L-ornithine benzyl ester] | 5.80 γ
O=C(NCCCC[C@H](NC(=O)C1OC1C(=O)O)C(=O)O)OCc1ccccc1 (stereo partly drawn) [EP-176, N-(3-carboxyoxirane-2-carbonyl)-N-carbobenzoxy-L-lysine dipotassium salt] | 1.06 γ
O=C(O)C1OC1C(=O)N[C@@H](Cc1c[nH]c2ccccc12)C(=O)O (stereo partly drawn) [EP-177, N-(3-carboxyoxirane-2-carbonyl)-L-tryptophan] | 1.50 γ
N=C(NCCC[C@H](NC(=O)C1OC1C(=O)OCc1ccccc1)C(=O)OCc1ccccc1)N[N+](=O)[O-] (stereo partly drawn) [EP-178, N-(3-benzyloxycarbonyloxirane-2-carbonyl)-N^G -nitro-L-arginine benzyl ester] | 4.63 γ
CC(C)OC(=O)C1OC1C(=O)N[C@@H](CCCCNC(=O)OCc1ccccc1)C(=O)OCc1ccccc1 (stereo partly drawn) [EP-180, N^α -(3-iso-propyloxycarbonyloxirane-2-carbonyl)-N^ε -carbobenzoxy-L-lysine benzyl ester] | 9.76 γ
Cc1ccc(COC(=O)C2OC2C(=O)N[C@@H](CCCCNC(=O)OCc2ccccc2)C(=O)OCc2ccccc2)cc1 (stereo partly drawn) [EP-181, N^α -(3-p-methylbenzyloxycarbonyloxirane-2-carbonyl)-N^ε -carbobenzoxy-L-lysine benzyl ester] | 6.59 γ
O=C(NCCC[C@H](NC(=O)C1OC1C(=O)OCc1ccccc1)C(=O)OCc1ccccc1)OCc1ccccc1 (stereo partly drawn) [EP-182, N^α -(3-benzyloxycarbonyloxirane-2-carbonyl)-N^δ -carbobenzoxy-L-ornithine benzyl ester] | 5.95 γ
CCCCOC(=O)C1OC1C(=O)N[C@@H](CCCNC(=O)OCc1ccccc1)C(=O)OCc1ccccc1 (stereo partly drawn) [EP-183, N^α -(3-n-buthoxycarbonyloxirane-2-carbonyl)-N^δ -carbobenzoxy-L-ornithine benzyl ester] | 4.46 γ
COC(=O)[C@H](CCCNC(=N)N[N+](=O)[O-])NC(=O)C1OC1C(=O)OCc1ccccc1 (stereo partly drawn) [EP-184, N^α -(3-benzyloxycarbonyloxirane-2-carbonyl)-N^G -nitro-L-arginine methyl ester] | 2.91 γ
CCOC(=O)C1OC1C(=O)N[C@@H](Cc1c[nH]cn1)C(=O)OC (stereo partly drawn) [EP-185, N^α -(3-ethoxycarbonyloxirane-2-carbonyl)-L-histidine methyl ester] | 14.05 γ
CCOC(=O)C1OC1C(=O)N[C@@H](CO)C(=O)OCC (stereo partly drawn) [EP-186, N^α -(3-ethoxycarbonyloxirane-2-carbonyl)-L-serine ethyl ester] | 23.15 γ
O=C(NCCCC[C@H](NC(=O)C1OC1C(=O)OCCc1ccccc1)C(=O)OCc1ccccc1)OCc1ccccc1 (stereo partly drawn) [EP-187, N^α -(3-phenethyloxycarbonyloxirane-2-carbonyl)-N^ε -carbobenzoxy-L-lysine benzyl ester] | 1.40 γ
O=C(NCCCC[C@H](NC(=O)C1OC1C(=O)OCCCc1ccccc1)C(=O)OCc1ccccc1)OCc1ccccc1 (stereo partly drawn) [EP-188, N^α -[3-(3'-phenylpropyloxy)-carbonyloxirane-2-carbonyl]-N^ε -carbobenzoxy-L-lysine benzyl ester] | 1.86 γ
CCOC(=O)[C@@H](NC(=O)C1OC1C(=O)OC)[C@@H](C)O (stereo partly drawn) [EP-190, N-(3-methoxycarbonyloxirane-2-carbonyl)-L-threonine ethyl ester] | 17.13 γ
O=C(N[C@@H](CSCc1ccccc1)C(=O)OCc1ccccc1)C1OC1C(=O)OCc1ccccc1 (stereo partly drawn) [EP-191, N-(3-benzyloxycarbonyloxirane-2-carbonyl)-S-benzyl-L-cysteine benzyl ester] | 5.51 γ
CCOC(=O)C1OC1C(=O)N[C@@H](C)C(=O)OC(C)(C)C (stereo partly drawn) [EP-192, N-(3-ethoxycarbonyloxirane-2-carbonyl)-L-alanine-t-butyl ester] | 40.50 γ
CCOC(=O)C1OC1C(=O)N[C@@H](CC(=O)OCc1ccccc1)C(=O)OCc1ccccc1 (stereo partly drawn) [EP-193, N-(3-ethoxycarbonyloxirane-2-carbonyl)-L-aspartic acid dibenzyl ester] | 20.50 γ
CCOC(=O)C1OC1C(=O)N[C@@H](CC(N)=O)C(=O)OCc1ccccc1 (stereo partly drawn) [EP-194, N-(3-ethoxycarbonyloxirane-2-carbonyl)-L-asparagine benzyl ester] | 22.60 γ
